{"source": "ChEMBL document CHEMBL2203166", "about": "“Small Molecule Ligands For Active Targeting Of TrkC-expressing Tumor Cells” (ACS Med Chem Lett, 2012)", "key": {"[1]": {"tested_on": "NIH3T3", "experiment": "Cytotoxicity against mouse NIH/3T3 cells after 56 to 60 hrs by MTT assay", "assay_type": "cell-based", "conditions": "for Activity: mouse, nih3t3; for IC50: Mus musculus, NIH3T3"}, "[2]": {"tested_on": "NIH3T3", "experiment": "Cytotoxicity against mouse NIH/3T3 cells expressing TrkC receptor after 56 to 60 hrs by MTT assay", "assay_type": "functional, cell-based"}, "[3]": {"experiment": "Cytotoxicity against CHO cells", "assay_type": "cell-based, Cricetulus griseus", "conditions": "chinese hamster, read-out: ED50 (the source's name)"}, "[4]": {"tested_on": "NIH3T3", "experiment": "Cytotoxicity against mouse NIH/3T3 cells after 56 to 60 hrs by MTT assay in presence of 3.5 nM of growth factor NT3", "assay_type": "cell-based"}, "[5]": {"tested_on": "NIH3T3", "experiment": "Cytotoxicity against mouse NIH/3T3 cells expressing TrkC receptor after 56 to 60 hrs by MTT assay in presence of 3.5 nM of growth factor NT3", "assay_type": "functional, cell-based"}, "[6]": {"tested_on": "NIH3T3", "experiment": "Cytotoxicity against mouse NIH/3T3 cells after 56 to 60 hrs by MTT assay in presence of 20 uM of IY-IY-TEG", "assay_type": "cell-based"}, "[7]": {"tested_on": "NIH3T3", "experiment": "Cytotoxicity against mouse NIH/3T3 cells expressing TrkC receptor after 56 to 60 hrs by MTT assay in presence of 20 uM of IY-IY-TEG", "assay_type": "functional, cell-based"}, "[8]": {"tested_on": "MCF7", "experiment": "Cytotoxicity against human MCF7 cells", "assay_type": "functional, cell-based"}, "[9]": {"tested_on": "4T1", "experiment": "Cytotoxicity against mouse 4T1 cells expressing TrkC receptor after 30 hrs by Calcein-AM assay", "assay_type": "functional, cell-based", "conditions": "4T1, 30 h"}, "[10]": {"conditions": "Mus musculus, NIH3T3, read-out: IC50"}}, "note": "Active and inactive are the calls of the source. The rule behind the calls is not given here."}
{"molecule": "S=c1nc[nH]c2c1ncn2CCOCCOCCn1cc(COCCOCCOCCNc2nc(N3CCOCC3)nc(N3CCOCC3)n2)nn1", "values": [{"measurement": "Activity", "setting": "[1]", "value": "Non-toxic"}, {"measurement": "IC50", "setting": "[2]; nih3t3", "value": "Not Active"}]}
{"molecule": "CCCCn1cnc2c(=S)nc[nH]c21", "values": [{"measurement": "CC50", "setting": "[3]", "value": 400, "unit": "µM"}]}
{"molecule": "CC[C@H](C)[C@@H](C(=O)N1CCN(c2nc(NCCOCCOCCOCc3cn(CC#Cc4ccc(-c5c6ccc(=[N+]7CCCCC7)cc-6oc6cc(N7CCCCC7)ccc56)cc4)nn3)nc(N3CCN(C(=O)[C@H]([C@@H](C)CC)n4cc([C@@H](N)Cc5ccc(O)cc5)nn4)CC3)n2)CC1)n1cc([C@@H](N)Cc2ccc(O)cc2)nn1", "values": [{"measurement": "Activity", "setting": "[4]", "value": "Toxic"}, {"measurement": "Activity", "setting": "[5]", "value": "Active"}, {"measurement": "IC50", "setting": "[1]", "value": 25.8, "unit": "µM"}, {"measurement": "Activity", "setting": "[6]", "value": "Toxic"}, {"measurement": "IC50", "setting": "[2]; [10]", "value": 25.8, "unit": "µM"}, {"measurement": "Activity", "setting": "[7]", "value": "Active"}]}
{"molecule": "CN(C)c1ccc2c(-c3ccccc3)c3ccc(N(C)C)cc3[o+]c2c1", "note": "[ROSAMINE]", "values": [{"measurement": "IC50", "setting": "[8]", "value": 390, "unit": "nM"}]}
{"molecule": "CC[C@H](C)[C@H](N)c1cn([C@@H](Cc2ccc(O)cc2)C(=O)N2CCN(c3nc(NCCOCCOCCOCc4cn(CCOCCOCCn5cnc6c(=S)nc[nH]c65)nn4)nc(N4CCN(C(=O)[C@H](Cc5ccc(O)cc5)n5cc([C@@H](N)[C@@H](C)CC)nn5)CC4)n3)CC2)nn1", "values": [{"measurement": "Activity", "setting": "[1]", "value": "Non-toxic"}, {"measurement": "IC50", "setting": "[2]; nih3t3", "value": "Active"}]}
{"molecule": "CCn1cnc2c(=S)nc[nH]c21", "values": [{"measurement": "CC50", "setting": "[3]", "value": 600, "unit": "µM"}]}
{"molecule": "C#CCOCCOCCOCCNc1nc(N2CCN(C(=O)[C@H](Cc3ccc(O)cc3)n3cc([C@@H](N)[C@@H](C)CC)nn3)CC2)nc(N2CCN(C(=O)[C@H](Cc3ccc(O)cc3)n3cc([C@@H](N)[C@@H](C)CC)nn3)CC2)n1", "values": [{"measurement": "Activity", "setting": "[1]", "value": "Non-toxic"}, {"measurement": "IC50", "setting": "[2]; nih3t3", "value": "Not Active"}]}
{"molecule": "CC[C@H](C)[C@H](N)c1cn([C@@H](Cc2ccc(O)cc2)C(=O)N2CCN(c3nc(NCCOCCOCCOCc4cn(CC#Cc5ccc(-c6c7ccc(=[N+]8CCCCC8)cc-7oc7cc(N8CCCCC8)ccc67)cc5)nn4)nc(N4CCN(C(=O)[C@H](Cc5ccc(O)cc5)n5cc([C@@H](N)[C@@H](C)CC)nn5)CC4)n3)CC2)nn1", "values": [{"measurement": "Activity", "setting": "[4]", "value": "Toxic"}, {"measurement": "Activity", "setting": "[5]", "value": "inactive"}, {"measurement": "IC50", "setting": "[1]", "value": 27.6, "unit": "µM"}, {"measurement": "Activity", "setting": "[6]", "value": "Toxic"}, {"measurement": "IC50", "setting": "[2]; [10]", "value": 15.8, "unit": "µM"}, {"measurement": "Activity", "setting": "[7]", "value": "inactive"}, {"measurement": "IC50", "setting": "[9]", "value": 19.9, "unit": "µM"}]}
{"molecule": "Sc1ncnc2nc[nH]c12", "note": "[MERCAPTOPURINE ANHYDROUS]", "values": [{"measurement": "IC50", "setting": "[8]", "value": 2790, "unit": "nM"}, {"measurement": "CC50", "setting": "[3]", "value": 50, "unit": "µM"}]}
